From patent US20180098538A1, “CONFIGURATIONAL STEREOISOMER OF DIFETHIALONE, COMPOSITION AND RODENTICIDAL BAIT COMPRISING SAME, AND PROCESS FOR CONTROLLING TARGET RODENT PESTS” (priority 2015, published 2018)

Format: in vivo
Settings: rats which consumed a bait comprising 15 ppm of difethialone of the prior art
Protocol: For comparative purposes, the difethialone content retained in the liver of rats which consumed a bait comprising 15 ppm of difethialone of the prior art is about 110 μg/gram.

Which “Difethialone content retained in the liver” value does the source give for `O=c1sc2ccccc2c(O)c1C1CC(c2ccc(-c3ccc(Br)cc3)cc2)Cc2ccccc21` (stereo not shown) [difethialone, 3-(4′-bromobiphenyl-4-yl)-1-(4-hydroxythiocoumarin-3-yl)-1,2,3,4-tetrahydronaphthalene] here?
Its value is “about 110 μg/gram”.
